From patent US20240383856A1 (Zedira GmbH, priority 2021, published 2024) come the findings set out here.

pIC50: −log10 of the molar value. Some results are limits rather than exact numbers.

The nature of series [1]: Caco-2 permeability assay (CacoReady kit). In kind it is in vitro ADME. The conditions noted are these: human, Caco-2, Caco-2 barrier, CacoReady kit; above 1×10^−6 cm/s classified as permeable. A digest of the protocol: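 Compounds are tested on pre-formed Caco-2 barriers supplied as a ready-to-use kit, following the kit protocol, and the Papp value is derived to estimate intestinal absorption.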
A general note: Passage across Caco-2 layers is used to estimate intestinal permeability.

In series [2] the target is T1, recombinant human transglutaminase 2 (Homo sapiens, UniProt P21980).
T1 construct: purchased Zedira T022
T1 sequence (P21980 1-687): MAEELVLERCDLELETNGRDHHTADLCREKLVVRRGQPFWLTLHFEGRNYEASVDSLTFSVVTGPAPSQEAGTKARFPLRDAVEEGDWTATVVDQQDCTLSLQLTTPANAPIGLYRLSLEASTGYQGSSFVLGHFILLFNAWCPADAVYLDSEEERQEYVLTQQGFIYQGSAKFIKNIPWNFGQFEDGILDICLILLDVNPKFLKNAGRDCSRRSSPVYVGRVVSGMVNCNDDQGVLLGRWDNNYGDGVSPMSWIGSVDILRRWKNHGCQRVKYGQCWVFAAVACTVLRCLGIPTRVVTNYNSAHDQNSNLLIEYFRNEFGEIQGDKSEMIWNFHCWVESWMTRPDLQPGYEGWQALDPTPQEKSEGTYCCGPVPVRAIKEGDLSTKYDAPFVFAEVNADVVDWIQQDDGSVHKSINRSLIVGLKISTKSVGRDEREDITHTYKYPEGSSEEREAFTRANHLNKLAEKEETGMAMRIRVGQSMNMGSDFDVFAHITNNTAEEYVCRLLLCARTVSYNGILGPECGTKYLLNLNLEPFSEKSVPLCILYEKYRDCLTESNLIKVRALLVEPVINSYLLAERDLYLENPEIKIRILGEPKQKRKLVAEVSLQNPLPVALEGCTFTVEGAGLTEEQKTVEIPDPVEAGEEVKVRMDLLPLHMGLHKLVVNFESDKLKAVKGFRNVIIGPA
The experiment in a line: Transglutaminase assay (DCC-assay): incorporation of dansylcadaverine into dimethylcasein. Type of series: biochemical. The conditions noted are these: recombinant human TG2 10 nM; dansylcadaverine incorporation into dimethylcasein; read-out: IC50 TG2. In a few lines:
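IC50 is the inhibitor level that blocks 50% of initial activity. Activity is the fluorescence slope (λex 330, λem 500 nm) between 20 and 30 min of a 37 °C run, relative to a 2% DMSO control. The enzyme is recombinant human tissue transglutaminase, 10 nM final, tested against a 1:2 inhibitor dilution series in a pH 8.0 mix with 10 mM CaCl2, 10 mM glutathione, 16.7 µM dansylcadaverine and 4 µM N,N-dimethylcasein.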

The nature of series [3]: logD by shake flask method (octanol / PBS pH 7.4, HPLC). Type of series: physicochemical. As to conditions: octanol / PBS pH 7.4, shake flask. In a few lines: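 LogD obtained by HPLC measurement of how the compound distributes between PBS (pH 7.4) and octanol in a shake-flask experiment.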

Usually Papp stands for a coefficient for how fast a substance crosses the barrier. High values mean ready permeation, low ones poor permeation. What is called pIC50 is the negative decadic logarithm of the IC50, by convention in mol/L. For orientation: logD means lipophilicity at a set pH, counting ionised and neutral species. The low end stands for a more hydrophilic compound, the high end for a more lipophilic compound. Consider `CNC(=O)C(=O)CC[C@H](NC(=O)c1cn(C)nn1)C(=O)Nc1cccn(CC(=O)NC2C3CC4CC(C3)CC2C4)c1=O` (stereo partly drawn) [II-133, (S)-N1-(1-(2-(2-adamantylamino)-2-oxoethyl)-2-oxo-1,2-dihydropyridin-3-yl)-N6-methyl-2-(1-methyl-1H-1,2,3-triazole-4-carboxamido)-5-oxohexanediamide], for which the Papp in series [1] lay within 1 to 10 ×10⁻⁶ cm/s. In series [2], the pIC50 was 5.60 to 6.40. Further, the logD in series [3] was less than 1.
For the compound `CNC(=O)C(=O)CC[C@H](NC(=O)c1nc[nH]n1)C(=O)Nc1cccn(CC(=O)NC2C3CC4CC(C3)CC2C4)c1=O` (stereo partly drawn) [II-134, (S)-N1-(1-(2-(2-adamantylamino)-2-oxoethyl)-2-oxo-1,2-dihydropyridin-3-yl)-N6-methyl-5-oxo-2-(1H-1,2,4-triazole-3-carboxamido)hexanediamide], the Papp in series [1] was less than 1 ×10⁻⁶ cm/s. The pIC50 in series [2] was 5.60 to 6.40. The same compound returned a logD in series [3] of less than 1.
In series [1], `CNC(=O)C(=O)CC[C@H](NC(=O)c1ncn(C)n1)C(=O)Nc1cccn(CC(=O)NC2C3CC4CC(C3)CC2C4)c1=O` (stereo partly drawn) [II-135, (S)-N1-(1-(2-(2-adamantylamino)-2-oxoethyl)-2-oxo-1,2-dihydropyridin-3-yl)-N6-methyl-2-(1-methyl-1H-1,2,4-triazole-3-carboxamido)-5-oxohexanediamide] showed a Papp of 1 to 10 ×10⁻⁶ cm/s. The pIC50 in series [2] was 6.40 to 7.40. In addition, the logD in series [3] is less than 1.
In the case of `CNC(=O)C(=O)CC[C@H](NC(=O)c1coc2ccccc12)C(=O)Nc1cccn(CC(=O)NC2C3CC4CC(C3)CC2C4)c1=O` (stereo partly drawn) [II-136, (S)-2-(benzofuran-3-carboxamido)-N1-(1-(2-(2-adamantylamino)-2-oxoethyl)-2-oxo-1,2-dihydropyridin-3-yl)-N6-methyl-5-oxohexanediamide], in series [1], the Papp is 1 to 10 ×10⁻⁶ cm/s. The pIC50 in series [2] is 6.40 to 7.40. This compound also registered a logD in series [3] of 1 to 3.
For the compound `CNC(=O)C(=O)CC[C@H](NC(=O)c1csc2ccccc12)C(=O)Nc1cccn(CC(=O)NC2C3CC4CC(C3)CC2C4)c1=O` (stereo partly drawn) [II-137, (S)-2-(benzo[b]thiophene-3-carboxamido)-N1-(1-(2-(2-adamantylamino)-2-oxoethyl)-2-oxo-1,2-dihydropyridin-3-yl)-N6-methyl-5-oxohexanediamide], in series [1], the Papp was in the range of 1 to 10 ×10⁻⁶ cm/s. Besides, the pIC50 in series [2] was 6.40 to 7.40. Besides, the logD in series [3] was 3 to 5.
Taken in the same sequence, the figures for `CNC(=O)C(=O)CC[C@H](NC(=O)c1ccn(C)n1)C(=O)Nc1cccn(CC(=O)NC2C3CC4CC(C3)CC2C4)c1=O` (stereo partly drawn) [II-138, (S)-N1-(1-(2-(2-adamantylamino)-2-oxoethyl)-2-oxo-1,2-dihydropyridin-3-yl)-N6-methyl-2-(1-methyl-1H-pyrazole-3-carboxamido)-5-oxohexanediamide] were less than 1 ×10⁻⁶ cm/s, 5.60 to 6.40 and less than 1.
In series [1], `CNC(=O)C(=O)CC[C@H](NC(=O)c1cnn(C)c1)C(=O)Nc1cccn(CC(=O)NC2C3CC4CC(C3)CC2C4)c1=O` (stereo partly drawn) [II-139, (S)-N1-(1-(2-(2-adamantylamino)-2-oxoethyl)-2-oxo-1,2-dihydropyridin-3-yl)-N6-methyl-2-(1-methyl-1H-pyrazole-4-carboxamido)-5-oxohexanediamide] showed a Papp of less than 1 ×10⁻⁶ cm/s. Moreover, the pIC50 in series [2] was 5.60 to 6.40. The compound also gave a logD in series [3] of less than 1.
In the case of `CNC(=O)C(=O)CC[C@H](NC(=O)c1ccnn1C)C(=O)Nc1cccn(CC(=O)NC2C3CC4CC(C3)CC2C4)c1=O` (stereo partly drawn) [II-140, (S)-N1-(1-(2-(2-adamantylamino)-2-oxoethyl)-2-oxo-1,2-dihydropyridin-3-yl)-N6-methyl-2-(1-methyl-1H-pyrazole-5-carboxamido)-5-oxohexanediamide], the Papp in series [1] was less than 1 ×10⁻⁶ cm/s. Besides, the pIC50 in series [2] is 6.40 to 7.40. The logD in series [3] is less than 1.
Take `CNC(=O)C(=O)CC[C@H](NC(=O)c1snnc1C)C(=O)Nc1cccn(CC(=O)NC2C3CC4CC(C3)CC2C4)c1=O` (stereo partly drawn) [II-141, (S)-N1-(1-(2-(2-adamantylamino)-2-oxoethyl)-2-oxo-1,2-dihydropyridin-3-yl)-N6-methyl-2-(4-methyl-1,2,3-thiadiazole-5-carboxamido)-5-oxohexanediamide]: the Papp in series [1] was less than 1 ×10⁻⁶ cm/s. The pIC50 in series [2] is 6.40 to 7.40. Besides, in series [3], the logD is less than 1.
In turn, `CNC(=O)C(=O)CC[C@H](NC(=O)c1cnsn1)C(=O)Nc1cccn(CC(=O)NC2C3CC4CC(C3)CC2C4)c1=O` (stereo partly drawn) [II-142, (S)-N1-(1-(2-(2-adamantylamino)-2-oxoethyl)-2-oxo-1,2-dihydropyridin-3-yl)-N6-methyl-5-oxo-2-(1,2,5-thiadiazole-3-carboxamido)hexanediamide] gave a Papp in series [1] of less than 1 ×10⁻⁶ cm/s. Also, the pIC50 in series [2] was 6.40 to 7.40. This compound also showed a log distribution coefficient (logD) in series [3] of 1 to 3.
The compound `CNC(=O)C(=O)CC[C@H](NC(=O)c1c(I)cnn1C)C(=O)Nc1cccn(CC(=O)NC2C3CC4CC(C3)CC2C4)c1=O` (stereo partly drawn) [II-143, (S)-2-(4-iodo-1-methyl-1H-pyrazole-5-carboxamido)-N1-(1-(2-(2-adamantylamino)-2-oxoethyl)-2-oxo-1,2-dihydropyridin-3-yl)-N6-methyl-5-oxohexanediamide] yielded a Papp in series [1] of less than 1 ×10⁻⁶ cm/s. The pIC50 in series [2] was 5.60 to 6.40. In addition, the logD in series [3] is less than 1.
`Cn1nccc1C(=O)N[C@@H](CCC(=O)C(N)=O)C(=O)Nc1cccn(CC(=O)NC2C3CC4CC(C3)CC2C4)c1=O` (stereo partly drawn) [II-144, (S)-N1-(1-(2-(2-adamantylamino)-2-oxoethyl)-2-oxo-1,2-dihydropyridin-3-yl)-2-(1-methyl-1H-pyrazole-5-carboxamido)-5-oxohexanediamide] registered a Papp in series [1] of less than 1 ×10⁻⁶ cm/s. Besides, the negative logarithm of the IC50 (pIC50) in series [2] is 5.60 to 6.40. In addition, in series [3], the logD was less than 1.
Regarding `Cc1nnsc1C(=O)N[C@@H](CCC(=O)C(N)=O)C(=O)Nc1cccn(CC(=O)NC2C3CC4CC(C3)CC2C4)c1=O` (stereo partly drawn) [II-145, (S)-N1-(1-(2-(2-adamantylamino)-2-oxoethyl)-2-oxo-1,2-dihydropyridin-3-yl)-2-(4-methyl-1,2,3-thiadiazole-5-carboxamido)-5-oxohexanediamide], in series [1], the apparent permeability (Papp) is less than 1 ×10⁻⁶ cm/s. Besides, in series [2], the pIC50 was 6.40 to 7.40. The compound further had a logD in series [3] of less than 1.
In turn, `NC(=O)C(=O)CC[C@H](NC(=O)c1cc2ccccc2o1)C(=O)Nc1cccn(CC(=O)N[C@@H]2C[C@H]3CC[C@@H]2C3)c1=O` [II-146, (S)-2-(benzofuran-2-carboxamido)-N1-(1-(2-((1R,2R,4S)-bicyclo[2.2.1]heptan-2-ylamino)-2-oxoethyl)-2-oxo-1,2-dihydropyridin-3-yl)-5-oxohexanediamide] had a Papp in series [1] of 1 to 10 ×10⁻⁶ cm/s. The pIC50 in series [2] was more than 7.40. In series [3], this compound registered a pH-dependent lipophilicity (logD) of less than 1.
On to `Cc1c(C(=O)N[C@@H](CCC(=O)C(N)=O)C(=O)Nc2cccn(CC(=O)N[C@@H]3C[C@H]4CC[C@@H]3C4)c2=O)oc2ccccc12` [II-147, (S)-N1-(1-(2-((1R,2R,4S)-bicyclo[2.2.1]heptan-2-ylamino)-2-oxoethyl)-2-oxo-1,2-dihydropyridin-3-yl)-2-(3-methylbenzofuran-2-carboxamido)-5-oxohexanediamide], for which the Papp in series [1] was in the range of 1 to 10 ×10⁻⁶ cm/s. Besides, the pIC50 in series [2] was more than 7.40. The compound further returned a logD in series [3] of less than 1.
In the case of `NC(=O)C(=O)CC[C@H](NC(=O)c1cc2ccccc2o1)C(=O)Nc1cccn(CC(=O)N[C@@H]2C[C@@H]3CC[C@H]2C3)c1=O` [II-148, (S)-2-(benzofuran-2-carboxamido)-N1-(1-(2-((1S,2R,4R)-bicyclo[2.2.1]heptan-2-ylamino)-2-oxoethyl)-2-oxo-1,2-dihydropyridin-3-yl)-5-oxohexanediamide], the Papp in series [1] fell in the range of 1 to 10 ×10⁻⁶ cm/s. Besides, the pIC50 in series [2] is more than 7.40. Also, the logD in series [3] is less than 1.
As for `Cc1c(C(=O)N[C@@H](CCC(=O)C(N)=O)C(=O)Nc2cccn(CC(=O)N[C@@H]3C[C@@H]4CC[C@H]3C4)c2=O)oc2ccccc12` [II-149, (S)-N1-(1-(2-((1S,2R,4R)-bicyclo[2.2.1]heptan-2-ylamino)-2-oxoethyl)-2-oxo-1,2-dihydropyridin-3-yl)-2-(3-methylbenzofuran-2-carboxamido)-5-oxohexanediamide], the Papp in series [1] fell in the range of 1 to 10 ×10⁻⁶ cm/s. Further, in series [2], the pIC50 was more than 7.40. In series [3], the logD is less than 1.
